Source: ChEMBL document CHEMBL1130161, “Cyclic urea amides: HIV-1 protease inhibitors with low nanomolar potency against both wild type and protease inhibitor resistant mutants of HIV” (J Med Chem, 1997)

Tested on: Human immunodeficiency virus
Experiment: Resistance of constructed mutant 48V/90M virus was calculated as (IC90 for a mutant virus / IC90 of wt HXB2 virus)
Assay type: functional
Conditions: not given

Structure (SMILES)	Resistance
Nc1cccc(CN2C(=O)N(Cc3cccc(N)c3)[C@H](Cc3ccccc3)[C@H](O)[C@@H](O)[C@H]2Cc2ccccc2)c1 [MOZENAVIR]	1.5
O=C(Nc1nccs1)c1cccc(CN2C(=O)N(Cc3ccccc3)[C@H](Cc3ccccc3)[C@H](O)[C@@H](O)[C@H]2Cc2ccccc2)c1	1.9
CC(C)(C)NC(=O)[C@@H]1C[C@@H]2CCCC[C@@H]2CN1C[C@@H](O)[C@H](Cc1ccccc1)NC(=O)[C@H](CC(N)=O)NC(=O)c1ccc2ccccc2n1	20
O=C(Nc1nc2ccccc2[nH]1)c1cccc(CN2C(=O)N(Cc3cccc(C(=O)Nc4nc5ccccc5[nH]4)c3)[C@H](Cc3ccccc3)[C@H](O)[C@@H](O)[C@H]2Cc2ccccc2)c1	0.3
CC(C)c1nc(CN(C)C(=O)N[C@H](C(=O)N[C@@H](Cc2ccccc2)C[C@H](O)[C@H](Cc2ccccc2)NC(=O)OCc2cncs2)C(C)C)cs1 [RITONAVIR]	5
O=C1N(CC2CC2)[C@H](Cc2ccccc2)[C@H](O)[C@@H](O)[C@@H](Cc2ccccc2)N1CC1CC1	1.3
O=C(Nc1nccs1)c1cccc(CN2C(=O)N(Cc3cccc(C(=O)Nc4nccs4)c3)[C@H](Cc3ccccc3)[C@H](O)[C@@H](O)[C@H]2Cc2ccccc2)c1	0.2
CC(C)CN(C[C@@H](O)[C@H](Cc1ccccc1)NC(=O)O[C@H]1CCOC1)S(=O)(=O)c1ccc(N)cc1	1.1

Tested on: Human immunodeficiency virus
Experiment: Resistance of constructed mutant ABT538 virus was calculated as (IC90 for a mutant virus / IC90 of wt HXB2 virus)
Assay type: functional
Conditions: not given

Structure (SMILES)	Resistance
Nc1cccc(CN2C(=O)N(Cc3cccc(N)c3)[C@H](Cc3ccccc3)[C@H](O)[C@@H](O)[C@H]2Cc2ccccc2)c1 [MOZENAVIR]	49
O=C(Nc1nccs1)c1cccc(CN2C(=O)N(Cc3ccccc3)[C@H](Cc3ccccc3)[C@H](O)[C@@H](O)[C@H]2Cc2ccccc2)c1	31
CC(C)(C)NC(=O)[C@@H]1C[C@@H]2CCCC[C@@H]2CN1C[C@@H](O)[C@H](Cc1ccccc1)NC(=O)[C@H](CC(N)=O)NC(=O)c1ccc2ccccc2n1	0.6
O=C(Nc1nc2ccccc2[nH]1)c1cccc(CN2C(=O)N(Cc3cccc(C(=O)Nc4nc5ccccc5[nH]4)c3)[C@H](Cc3ccccc3)[C@H](O)[C@@H](O)[C@H]2Cc2ccccc2)c1	1.2
CC(C)c1nc(CN(C)C(=O)N[C@H](C(=O)N[C@@H](Cc2ccccc2)C[C@H](O)[C@H](Cc2ccccc2)NC(=O)OCc2cncs2)C(C)C)cs1 [RITONAVIR]	30
O=C1N(CC2CC2)[C@H](Cc2ccccc2)[C@H](O)[C@@H](O)[C@@H](Cc2ccccc2)N1CC1CC1	7.2
O=C(Nc1nccs1)c1cccc(CN2C(=O)N(Cc3cccc(C(=O)Nc4nccs4)c3)[C@H](Cc3ccccc3)[C@H](O)[C@@H](O)[C@H]2Cc2ccccc2)c1	24
CC(C)CN(C[C@@H](O)[C@H](Cc1ccccc1)NC(=O)O[C@H]1CCOC1)S(=O)(=O)c1ccc(N)cc1	13

Molecular target: Human immunodeficiency virus type 1 protease (Human immunodeficiency virus 1, UniProt Q72874)
Experiment: Binding affinity to inhibit the purified wild-type HIV-1 Protease
Conditions: not given

Structure (SMILES)	Ki
Nc1cccc(CN2C(=O)N(Cc3cccc(N)c3)[C@H](Cc3ccccc3)[C@H](O)[C@@H](O)[C@H]2Cc2ccccc2)c1 [MOZENAVIR]	0.34 nM
O=C(Nc1nccs1)c1cccc(CN2C(=O)N(Cc3ccccc3)[C@H](Cc3ccccc3)[C@H](O)[C@@H](O)[C@H]2Cc2ccccc2)c1	0.074 nM

Tested on: not listed separately
Experiment: Resistance of constructed mutant 82F virus was calculated as (IC90 for a mutant virus / IC90 of wt HXB2 virus).
Assay type: functional
Conditions: not given

Structure (SMILES)	Resistance
Nc1cccc(CN2C(=O)N(Cc3cccc(N)c3)[C@H](Cc3ccccc3)[C@H](O)[C@@H](O)[C@H]2Cc2ccccc2)c1 [MOZENAVIR]	5.3
O=C(Nc1nccs1)c1cccc(CN2C(=O)N(Cc3ccccc3)[C@H](Cc3ccccc3)[C@H](O)[C@@H](O)[C@H]2Cc2ccccc2)c1	3
CC(C)(C)NC(=O)[C@@H]1C[C@@H]2CCCC[C@@H]2CN1C[C@@H](O)[C@H](Cc1ccccc1)NC(=O)[C@H](CC(N)=O)NC(=O)c1ccc2ccccc2n1	0.4
O=C(Nc1nc2ccccc2[nH]1)c1cccc(CN2C(=O)N(Cc3cccc(C(=O)Nc4nc5ccccc5[nH]4)c3)[C@H](Cc3ccccc3)[C@H](O)[C@@H](O)[C@H]2Cc2ccccc2)c1	0.3
CC(C)c1nc(CN(C)C(=O)N[C@H](C(=O)N[C@@H](Cc2ccccc2)C[C@H](O)[C@H](Cc2ccccc2)NC(=O)OCc2cncs2)C(C)C)cs1 [RITONAVIR]	8.9
O=C1N(CC2CC2)[C@H](Cc2ccccc2)[C@H](O)[C@@H](O)[C@@H](Cc2ccccc2)N1CC1CC1	4
O=C(Nc1nccs1)c1cccc(CN2C(=O)N(Cc3cccc(C(=O)Nc4nccs4)c3)[C@H](Cc3ccccc3)[C@H](O)[C@@H](O)[C@H]2Cc2ccccc2)c1	0.9
CC(C)CN(C[C@@H](O)[C@H](Cc1ccccc1)NC(=O)O[C@H]1CCOC1)S(=O)(=O)c1ccc(N)cc1	1.9

Tested on: Human immunodeficiency virus
Experiment: Resistance of constructed mutant […]/47V/50V virus was calculated as (IC90 for a mutant virus / IC90 of wt HXB2 virus).
Assay type: functional
Conditions: not given

Structure (SMILES)	Resistance
Nc1cccc(CN2C(=O)N(Cc3cccc(N)c3)[C@H](Cc3ccccc3)[C@H](O)[C@@H](O)[C@H]2Cc2ccccc2)c1 [MOZENAVIR]	7.5
O=C(Nc1nccs1)c1cccc(CN2C(=O)N(Cc3ccccc3)[C@H](Cc3ccccc3)[C@H](O)[C@@H](O)[C@H]2Cc2ccccc2)c1	10.2
O=C(Nc1nc2ccccc2[nH]1)c1cccc(CN2C(=O)N(Cc3cccc(C(=O)Nc4nc5ccccc5[nH]4)c3)[C@H](Cc3ccccc3)[C@H](O)[C@@H](O)[C@H]2Cc2ccccc2)c1	1
CC(C)c1nc(CN(C)C(=O)N[C@H](C(=O)N[C@@H](Cc2ccccc2)C[C@H](O)[C@H](Cc2ccccc2)NC(=O)OCc2cncs2)C(C)C)cs1 [RITONAVIR]	6
O=C1N(CC2CC2)[C@H](Cc2ccccc2)[C@H](O)[C@@H](O)[C@@H](Cc2ccccc2)N1CC1CC1	1.7
O=C(Nc1nccs1)c1cccc(CN2C(=O)N(Cc3cccc(C(=O)Nc4nccs4)c3)[C@H](Cc3ccccc3)[C@H](O)[C@@H](O)[C@H]2Cc2ccccc2)c1	23
CC(C)CN(C[C@@H](O)[C@H](Cc1ccccc1)NC(=O)O[C@H]1CCOC1)S(=O)(=O)c1ccc(N)cc1	39

Tested on: Human immunodeficiency virus
Experiment: Resistance of constructed mutant 84V virus was calculated as (IC90 for a mutant virus / IC90 of wt HXB2 virus).
Assay type: functional
Conditions: not given

Structure (SMILES)	Resistance
Nc1cccc(CN2C(=O)N(Cc3cccc(N)c3)[C@H](Cc3ccccc3)[C@H](O)[C@@H](O)[C@H]2Cc2ccccc2)c1 [MOZENAVIR]	9.9
O=C(Nc1nccs1)c1cccc(CN2C(=O)N(Cc3ccccc3)[C@H](Cc3ccccc3)[C@H](O)[C@@H](O)[C@H]2Cc2ccccc2)c1	7.2
CC(C)(C)NC(=O)[C@@H]1C[C@@H]2CCCC[C@@H]2CN1C[C@@H](O)[C@H](Cc1ccccc1)NC(=O)[C@H](CC(N)=O)NC(=O)c1ccc2ccccc2n1	0.7
O=C(Nc1nc2ccccc2[nH]1)c1cccc(CN2C(=O)N(Cc3cccc(C(=O)Nc4nc5ccccc5[nH]4)c3)[C@H](Cc3ccccc3)[C@H](O)[C@@H](O)[C@H]2Cc2ccccc2)c1	0.6
CC(C)c1nc(CN(C)C(=O)N[C@H](C(=O)N[C@@H](Cc2ccccc2)C[C@H](O)[C@H](Cc2ccccc2)NC(=O)OCc2cncs2)C(C)C)cs1 [RITONAVIR]	2.4
O=C1N(CC2CC2)[C@H](Cc2ccccc2)[C@H](O)[C@@H](O)[C@@H](Cc2ccccc2)N1CC1CC1	6.6
O=C(Nc1nccs1)c1cccc(CN2C(=O)N(Cc3cccc(C(=O)Nc4nccs4)c3)[C@H](Cc3ccccc3)[C@H](O)[C@@H](O)[C@H]2Cc2ccccc2)c1	1.2
CC(C)CN(C[C@@H](O)[C@H](Cc1ccccc1)NC(=O)O[C@H]1CCOC1)S(=O)(=O)c1ccc(N)cc1	1.5

Molecular target: Human immunodeficiency virus type 1 protease (Human immunodeficiency virus 1) (UniProt Q72874)
Experiment: Inhibitory concentration against accumulation of viral p24 antigen following infection of MT-4 cells
Assay type: functional, cell-based
Conditions: MT4

Structure (SMILES)	IC90
Nc1cccc(CN2C(=O)N(Cc3cccc(N)c3)[C@H](Cc3ccccc3)[C@H](O)[C@@H](O)[C@H]2Cc2ccccc2)c1 [MOZENAVIR]	120 nM
O=C(Nc1nccs1)c1cccc(CN2C(=O)N(Cc3ccccc3)[C@H](Cc3ccccc3)[C@H](O)[C@@H](O)[C@H]2Cc2ccccc2)c1	74 nM
CC(C)(C)NC(=O)[C@@H]1C[C@@H]2CCCC[C@@H]2CN1C[C@@H](O)[C@H](Cc1ccccc1)NC(=O)[C@H](CC(N)=O)NC(=O)c1ccc2ccccc2n1	15 nM
O=C(Nc1nc2ccccc2[nH]1)c1cccc(CN2C(=O)N(Cc3cccc(C(=O)Nc4nc5ccccc5[nH]4)c3)[C@H](Cc3ccccc3)[C@H](O)[C@@H](O)[C@H]2Cc2ccccc2)c1	5.1 nM
O=C1N(CC2CC2)[C@H](Cc2ccccc2)[C@H](O)[C@@H](O)[C@@H](Cc2ccccc2)N1CC1CC1	2100 nM
O=C(Nc1nccs1)c1cccc(CN2C(=O)N(Cc3cccc(C(=O)Nc4nccs4)c3)[C@H](Cc3ccccc3)[C@H](O)[C@@H](O)[C@H]2Cc2ccccc2)c1	4.2 nM
CC(C)CN(C[C@@H](O)[C@H](Cc1ccccc1)NC(=O)O[C@H]1CCOC1)S(=O)(=O)c1ccc(N)cc1	81 nM

Tested on: Human immunodeficiency virus
Experiment: Resistance of constructed mutant 82A virus was calculated as (IC90 for a mutant virus / IC90 of wt HXB2 virus).
Assay type: functional
Conditions: not given

Structure (SMILES)	Resistance
Nc1cccc(CN2C(=O)N(Cc3cccc(N)c3)[C@H](Cc3ccccc3)[C@H](O)[C@@H](O)[C@H]2Cc2ccccc2)c1 [MOZENAVIR]	2.5
O=C(Nc1nccs1)c1cccc(CN2C(=O)N(Cc3ccccc3)[C@H](Cc3ccccc3)[C@H](O)[C@@H](O)[C@H]2Cc2ccccc2)c1	4.9
CC(C)(C)NC(=O)[C@@H]1C[C@@H]2CCCC[C@@H]2CN1C[C@@H](O)[C@H](Cc1ccccc1)NC(=O)[C@H](CC(N)=O)NC(=O)c1ccc2ccccc2n1	0.9
O=C(Nc1nc2ccccc2[nH]1)c1cccc(CN2C(=O)N(Cc3cccc(C(=O)Nc4nc5ccccc5[nH]4)c3)[C@H](Cc3ccccc3)[C@H](O)[C@@H](O)[C@H]2Cc2ccccc2)c1	0.8
CC(C)c1nc(CN(C)C(=O)N[C@H](C(=O)N[C@@H](Cc2ccccc2)C[C@H](O)[C@H](Cc2ccccc2)NC(=O)OCc2cncs2)C(C)C)cs1 [RITONAVIR]	7.1
O=C1N(CC2CC2)[C@H](Cc2ccccc2)[C@H](O)[C@@H](O)[C@@H](Cc2ccccc2)N1CC1CC1	1.4
O=C(Nc1nccs1)c1cccc(CN2C(=O)N(Cc3cccc(C(=O)Nc4nccs4)c3)[C@H](Cc3ccccc3)[C@H](O)[C@@H](O)[C@H]2Cc2ccccc2)c1	2.2
CC(C)CN(C[C@@H](O)[C@H](Cc1ccccc1)NC(=O)O[C@H]1CCOC1)S(=O)(=O)c1ccc(N)cc1	2.2

Tested on: Human immunodeficiency virus
Experiment: Resistance of constructed mutant MK639 virus was calculated as (IC90 for a mutant virus / IC90 of wt HXB2 virus).
Assay type: functional
Conditions: not given

Structure (SMILES)	Resistance
Nc1cccc(CN2C(=O)N(Cc3cccc(N)c3)[C@H](Cc3ccccc3)[C@H](O)[C@@H](O)[C@H]2Cc2ccccc2)c1 [MOZENAVIR]	27
O=C(Nc1nccs1)c1cccc(CN2C(=O)N(Cc3ccccc3)[C@H](Cc3ccccc3)[C@H](O)[C@@H](O)[C@H]2Cc2ccccc2)c1	10
CC(C)(C)NC(=O)[C@@H]1C[C@@H]2CCCC[C@@H]2CN1C[C@@H](O)[C@H](Cc1ccccc1)NC(=O)[C@H](CC(N)=O)NC(=O)c1ccc2ccccc2n1	5.3
O=C(Nc1nc2ccccc2[nH]1)c1cccc(CN2C(=O)N(Cc3cccc(C(=O)Nc4nc5ccccc5[nH]4)c3)[C@H](Cc3ccccc3)[C@H](O)[C@@H](O)[C@H]2Cc2ccccc2)c1	0.7
CC(C)c1nc(CN(C)C(=O)N[C@H](C(=O)N[C@@H](Cc2ccccc2)C[C@H](O)[C@H](Cc2ccccc2)NC(=O)OCc2cncs2)C(C)C)cs1 [RITONAVIR]	5.5
O=C1N(CC2CC2)[C@H](Cc2ccccc2)[C@H](O)[C@@H](O)[C@@H](Cc2ccccc2)N1CC1CC1	11
O=C(Nc1nccs1)c1cccc(CN2C(=O)N(Cc3cccc(C(=O)Nc4nccs4)c3)[C@H](Cc3ccccc3)[C@H](O)[C@@H](O)[C@H]2Cc2ccccc2)c1	8.7
CC(C)CN(C[C@@H](O)[C@H](Cc1ccccc1)NC(=O)O[C@H]1CCOC1)S(=O)(=O)c1ccc(N)cc1	3.8
